Results reported in the NIST ThermoML archive (doi:10.1021/je060355j).

How the values were obtained:
[1] = xn = mol fraction of the nth substance listed; settings: 101.32 kPa, Liquid
[2] = excess molar enthalpy (molar enthalpy of mixing); xn = mol fraction of the nth substance listed; settings: 101.32 kPa, Liquid

CCOC=O [ethyl methanoate] + CCCCCC
Settings | excess molar enthalpy [kcal/mol] | mass density [kg/m3]
[1], 291.15 K, x1 = 0.0495 | – | 667.8
[1], 291.15 K, x1 = 0.1025 | – | 675.4
[1], 291.15 K, x1 = 0.1497 | – | 682.8
[1], 291.15 K, x1 = 0.2049 | – | 692.1
[1], 291.15 K, x1 = 0.2531 | – | 700.4
[1], 291.15 K, x1 = 0.3068 | – | 710.6
[1], 291.15 K, x1 = 0.3937 | – | 728.2
[1], 291.15 K, x1 = 0.5016 | – | 753
[1], 291.15 K, x1 = 0.6039 | – | 780
[1], 291.15 K, x1 = 0.6996 | – | 808.2
[1], 291.15 K, x1 = 0.7504 | – | 824.6
[1], 291.15 K, x1 = 0.8029 | – | 842.4
[1], 291.15 K, x1 = 0.9016 | – | 880.3
[1], 291.15 K, x1 = 0.9065 | – | 882.4
[1], 291.15 K, x1 = 0.9522 | – | 901.9
[1], 291.15 K, x1 = 0.958 | – | 905
[1], 291.15 K, x1 = 1 | – | 924.7
[1], 298.15 K, x1 = 0.0777 | – | 665.63
[1], 298.15 K, x1 = 0.1291 | – | 673.25
[1], 298.15 K, x1 = 0.1715 | – | 679.95
[1], 298.15 K, x1 = 0.2501 | – | 693.44
[1], 298.15 K, x1 = 0.327 | – | 707.73
[1], 298.15 K, x1 = 0.4765 | – | 739.84
[1], 298.15 K, x1 = 0.5354 | – | 754.13
[1], 298.15 K, x1 = 0.5955 | – | 769.95
[1], 298.15 K, x1 = 0.6441 | – | 783.83
[1], 298.15 K, x1 = 0.6993 | – | 800.39
[1], 298.15 K, x1 = 0.7956 | – | 832.38
[1], 298.15 K, x1 = 0.884 | – | 865.42
[1], 298.15 K, x1 = 0.9643 | – | 898.98
[1], 298.15 K, x1 = 1 | – | 915.16
[1], 308.15 K, x1 = 0.0485 | – | 651.9
[1], 308.15 K, x1 = 0.1103 | – | 660.5
[1], 308.15 K, x1 = 0.1539 | – | 667.2
[1], 308.15 K, x1 = 0.2548 | – | 683.8
[1], 308.15 K, x1 = 0.3998 | – | 711.6
[1], 308.15 K, x1 = 0.4915 | – | 731.9
[1], 308.15 K, x1 = 0.5935 | – | 757.8
[1], 308.15 K, x1 = 0.6998 | – | 788
[1], 308.15 K, x1 = 0.7971 | – | 819.9
[1], 308.15 K, x1 = 0.9063 | – | 860.7
[1], 308.15 K, x1 = 0.9488 | – | 878.7
[1], 308.15 K, x1 = 1 | – | 902.07
[1], 318.15 K, x1 = 0.0476 | – | 642.18
[1], 318.15 K, x1 = 0.0875 | – | 647.84
[1], 318.15 K, x1 = 0.1044 | – | 649.54
[1], 318.15 K, x1 = 0.1471 | – | 655.88
[1], 318.15 K, x1 = 0.2199 | – | 667.46
[1], 318.15 K, x1 = 0.3041 | – | 681.93
[1], 318.15 K, x1 = 0.4061 | – | 701.97
[1], 318.15 K, x1 = 0.5293 | – | 729.7
[1], 318.15 K, x1 = 0.5869 | – | 744.1
[1], 318.15 K, x1 = 0.6984 | – | 775.52
[1], 318.15 K, x1 = 0.7476 | – | 790.78
[1], 318.15 K, x1 = 0.7932 | – | 805.56
[1], 318.15 K, x1 = 0.8873 | – | 840.19
[1], 318.15 K, x1 = 0.9692 | – | 874.21
[1], 318.15 K, x1 = 1 | – | 888.42
[2], 291.15 K, x1 = 0.092 | 0.107 | –
[2], 291.15 K, x1 = 0.209 | 0.228 | –
[2], 291.15 K, x1 = 0.3175 | 0.305 | –
[2], 291.15 K, x1 = 0.4075 | 0.346 | –
[2], 291.15 K, x1 = 0.4677 | 0.364 | –
[2], 291.15 K, x1 = 0.5161 | 0.368 | –
[2], 291.15 K, x1 = 0.5681 | 0.365 | –
[2], 291.15 K, x1 = 0.6185 | 0.344 | –
[2], 291.15 K, x1 = 0.6714 | 0.319 | –
[2], 291.15 K, x1 = 0.7272 | 0.286 | –
[2], 291.15 K, x1 = 0.7841 | 0.243 | –
[2], 291.15 K, x1 = 0.843 | 0.188 | –
[2], 291.15 K, x1 = 0.9022 | 0.127 | –
[2], 291.15 K, x1 = 0.9514 | 0.0729 | –
[2], 318.15 K, x1 = 0.1003 | 0.149 | –
[2], 318.15 K, x1 = 0.1895 | 0.244 | –
[2], 318.15 K, x1 = 0.2842 | 0.323 | –
[2], 318.15 K, x1 = 0.3713 | 0.367 | –
[2], 318.15 K, x1 = 0.4495 | 0.389 | –
[2], 318.15 K, x1 = 0.5137 | 0.394 | –
[2], 318.15 K, x1 = 0.5599 | 0.387 | –
[2], 318.15 K, x1 = 0.5991 | 0.374 | –
[2], 318.15 K, x1 = 0.6795 | 0.337 | –
[2], 318.15 K, x1 = 0.7593 | 0.281 | –
[2], 318.15 K, x1 = 0.8299 | 0.216 | –
[2], 318.15 K, x1 = 0.8814 | 0.155 | –
[2], 318.15 K, x1 = 0.9215 | 0.105 | –
[2], 318.15 K, x1 = 0.966 | 0.051 | –
